Data from ChEMBL document CHEMBL3616419, “Synthesis, structure-activity relationship and biological evaluation of novel nitrogen mustard sophoridinic acid derivatives as potential anticancer agents” (Bioorg Med Chem Lett, 2015).
In brackets after ≈: the same amount, converted by molar mass.

How the values were obtained:
[1] = tested on: HepG2; test: Antiproliferative activity against human HepG2 cells incubated for 48 hrs by MTT assay; type: functional, cell-based; settings: HepG2, 48 h
[2] = Stability of the compound; type: physicochemical
[3] = tested on: Mus musculus; test: Toxicity in […] HepA cells xenografted KM mouse assessed as reduction in body weight at 18 to 72 mg/kg, iv dosed for 10 days relative to untreated control; type: organism-based; design: scale not given: the % may be the effect or the level left; settings: in vivo, 240 h
[4] = Antitumor activity against […] HepA cells xenografted in KM mouse assessed as inhibition of tumor weight at 18 mg/kg, iv dosed for 10 days relative to untreated control; type: functional; settings: 240 h, read-out: TGI
[5] = Antitumor activity against […] HepA cells xenografted in KM mouse assessed as inhibition of tumor weight at 72 mg/kg, iv dosed for 10 days relative to untreated control; type: functional; settings: 240 h, read-out: TGI
[6] = Antitumor activity against […] HepA cells xenografted in KM mouse assessed as inhibition of tumor weight at 36 mg/kg, iv dosed for 10 days relative to untreated control; type: functional; settings: 240 h, read-out: TGI

Row | Compound | IC50 [1] | Stability [2] | other results
1 | COC(=O)CCC[C@H]1[C@H]2CCCN3CCC[C@H](CN1C(=O)c1ccc(N(CCCl)CCCl)cc1)[C@@H]23 | 167 mg/L (≈ 319 µM) | Unstable | –
2 | O=C(CCC[C@H]1[C@H]2CCCN3CCC[C@H](CN1Cc1ccccc1)[C@@H]23)OCc1ccc(N(CCCl)CCCl)cc1 | 1.63 mg/L (≈ 2.78 µM) | – | –
3 | N[C@@H](Cc1ccc(N(CCCl)CCCl)cc1)C(=O)O [MELPHALAN] | 0.41 mg/L (≈ 1.34 µM) | – | –
4 | CCCCOC(=O)CCC[C@H]1[C@H]2CCCN3CCC[C@H](CN1C(=O)c1ccc(N(CCCl)CCCl)cc1)[C@@H]23 | 25 mg/L (≈ 44.1 µM) | Unstable | –
5 | CC(C)OC(=O)CCC[C@H]1[C@H]2CCCN3CCC[C@H](CN1C(=O)c1ccc(N(CCCl)CCCl)cc1)[C@@H]23 | 2.39 mg/L (≈ 4.33 µM) | Unstable | –
6 | CCCOC(=O)CCC[C@@H]1NC[C@H]2CCCN3CCC[C@H]1[C@H]23 | 196 mg/L (≈ 635 µM) | – | –
7 | CCOC(=O)CCC[C@H]1[C@H]2CCCN3CCC[C@H](CN1C(=O)c1ccc(N(CCCl)CCCl)cc1)[C@@H]23 | 91.2 mg/L (≈ 169 µM) | Unstable | –
8 | COC(=O)CCC[C@@H]1NC[C@H]2CCCN3CCC[C@H]1[C@H]23 | 1650 mg/L (≈ 5890 µM) | – | –
9 | O=C(CCC[C@H]1[C@H]2CCCN3CCC[C@H](CN1Cc1ccccc1)[C@@H]23)N(CCCl)CCCl | 2.74 mg/L (≈ 5.7 µM) | – | –
10 | CC(C)OC(=O)CCC[C@@H]1NC[C@H]2CCCN3CCC[C@H]1[C@H]23 | 93.1 mg/L (≈ 302 µM) | – | –
11 | CCCCOC(=O)CCC[C@@H]1NC[C@H]2CCCN3CCC[C@H]1[C@H]23 | 136 mg/L (≈ 421 µM) | – | –
12 | CCOC(=O)CCC[C@@H]1NC[C@H]2CCCN3CCC[C@H]1[C@H]23 | 223 mg/L (≈ 757 µM) | – | –
13 | O=C1CCC[C@@H]2[C@H]3CCCN4CCC[C@H](CN12)[C@@H]34 [SOPHORIDINE] | 1160 mg/L (≈ 4670 µM) | – | –
14 | CCCOC(=O)CCC[C@H]1[C@H]2CCCN3CCC[C@H](CN1C(=O)c1ccc(N(CCCl)CCCl)cc1)[C@@H]23 | 44.6 mg/L (≈ 80.7 µM) | Unstable | –
15 | O=C(CCC[C@H]1[C@H]2CCCN3CCC[C@H](CN1Cc1ccccc1)[C@@H]23)Nc1ccc(N(CCCl)CCCl)cc1 | 0.47 mg/L (≈ 0.822 µM) | – | Activity [3]: <= 20%; inhibition in vivo at 18 mg/kg [4]: 42.5%; inhibition in vivo at 72 mg/kg [5]: 58.2%; inhibition in vivo at 36 mg/kg [6]: 47.3%
